Columns and labels:
[1] = tested on: E. coli NM522 (pBBR1MCS5); experiment: BPL treatment of E. coli NM522 (pBBR1MCS5, no E-lysis), small scale, CFU; format: cell-based; settings: 0.05% BPL, 42° C., 30 min
Description: (§1) 2. Comparison of E. coli NM522 (pBBR1MCS5, no E-lysis) and E. coli BG NM522 (pGlysivb, E-lysis Plasmid) Treated vs. Nontreated with BPL at a Final Concentration of 0.05% BPL at 42° C.
(§2) Data from E. coli NM522 (pBBR1MCS5) that have been treated with 0.05% BPL at 42° C. (FIG. 4A) are showing that a reduction in viability of ˜5 log is obtained in small scale experiments whereas E. coli BG NM522 (pGlysivb) treated with 0.05% BPL at 42° C. […] Using a concentration of 0.05% BPL under a temperature of 42° C. and 30 min for the reaction is sufficient for E-lysed bacteria to be safely inactivated; no living cell counts are detected.

[2] = cited from earlier work
[3] = tested on: Shigella flexneri 2a (backbone plasmid pBBR1MCS5); experiment: Control fermentations inactivated with BPL, CFU; format: cell-based; settings: 0.05% BPL, 30 min, two control fermentations
Source text: (§3) During the production process samples of the culture broth are taken at fixed timepoints (labeled A-M in FIG. 3) to determine optical density, colony forming units (CFU), BG appearance by microscopy as well as for real time PCR analysis of DNA contents. Fermentation parameters like pH, air flow, pO2, stirring and temperature are automatically documented by the fermentation program. Throughout the consistency study all parameters were kept in a narrow window.
To determine the inactivation effect of BPL to Shigella flexneri 2a bacteria under the same fermentation conditions as for production of BG two control fermentations using Shigella flexneri 2a transformed with the backbone plasmid pBBR1MCS5 (no lysis, no nuclease) were performed. BPL killing rates as well as DNA concentration of bacterial samples was measured at time points and under fermentation conditions described for BG production (Example 1, FIG. 3).

[4] = tested on: E. coli BG NM522 (pGlysivb); experiment: BPL treatment of E. coli BG NM522 (pGlysivb, E-lysis plasmid), small scale, CFU; format: cell-based; settings: 0.05% BPL, 42° C., 30 min
Description: as §1, §2

E. coli NM522 pGlysivb = experiment: Temperature study of BPL inactivation rates; format: cell-based; settings: 0.05% BPL; for reduction of CFU: within 30 min; for time to BPL inactivation: starting CFU approximately 110^3/ml
Source text: The sterilizing activity of BPL and its self destruction in water is temperature dependant.

[5] = tested on: E. coli NM522 (backbone plasmid pBBR1MCS5); experiment: BPL treatment in 20 l fermenter, control without lysis, CFU; format: cell-based; settings: 0.05% BPL, 42° C., 30 min
Source text: as §3
(§4) BPL killing rates as well as DNA concentration of bacterial samples were measured at time points and under fermentation conditions as described for BG production (Example 1, FIG. 3).

[6] = tested on: E. coli NM522 (pGlysivb, pSNUCIQ3); experiment: BPL inactivation of E-SNUC BG in 20 l fermenter; format: cell-based; settings: 42° C., 30 min
Description: (§5) Gram negative bacteria (e.g E. coli or Shigella flexneri 2a in this study) are transformed with plasmid pGlysivb (encoding lysis gene E, construction as described in FIG. 2) or pGLNIc (encoding both the lysis gene E and the Staphylococcus aureus nuclease gene SNUC; WO 03/006630). Plasmids, pGlysivb and pGLNIc tightly regulate expression of lysis gene E by a temperature upshift from 35° C. to 42-44° C. under the mutated thermosensitive Lambda-promotor (λPRmut) and the expression of SNUC depends on induction from an upstream lac-promotor by addition of IPTG. As a consequence of protein E expression an E-specific tunnel structure between the inner and outer membrane of the bacteria is formed resulting in the expulsion of the cytoplasmic contents, including chromosomal and plasmid DNA, into the culture media under conditions described, at least 99.9% of all bacteria are converted into BG during the E-lysis process. To guarantee nucleic acid free BG a second system is activated in case of pGLNIc making use of the DNA and RNA degrading capabilities of SNUC. The nuclease is expressed −30 min before induction of gene E expression during the exponential growth phase of the bacteria and is activated after completion of E-lysis by addition of magnesiumchloride and calciumchloride. […]

[7] = tested on: E. coli NM522 BG (pGlysivb); experiment: BPL treatment in 20 l fermenter, E-lysed BG, CFU; format: cell-based; settings: 0.05% BPL, 42° C., 30 min
Description: as §5, with “SNUC.” for “SNUC. The nuclease is expressed −30 min before induction of gene E expression during the exponential growth phase of the bacteria and is activated after completion of E-lysis by addition of magnesiumchloride and calciumchloride.”
as §4

O=C1CCO1 [BPL, betapropiolactone]
reduction in viability [1]: ~5 log | solubility in water [2]: highly soluble in water | drop in living cell counts (CFU) [3]: 4 log | surviving bacteria after BPL treatment [4]: no surviving bacteria | reduction of CFU (E. coli NM522 pGlysivb; 16° C.): less than 0.5 log | reduction of CFU (E. coli NM522 pGlysivb; 28° C.): approximately 1.5 log | time to BPL inactivation (E. coli NM522 pGlysivb; 36° C.): 30 min | time to BPL inactivation (E. coli NM522 pGlysivb; 42° C.): 15 min | reduction in viability [5]: ~3 log | concentration used for total inactivation by BPL [6]: less than 0.025% | inactivation, live CFU at end of BG production process [7]: total inactivation

From patent US7968323B2, “Bacterial ghost (BG) production process using betapropiolactone (BPL) for final inactivation” (priority 2008, dated 2011)
